Experimental data from article PMC3914206.

Assays:
[1] = target: T1, panel of 442 kinases (Homo sapiens, UniProt P22607); assay type: binding; settings: Compound Concentration 10 µM
T1 construct: purchased KINOMEscan
Text: (§1) We assessed the selectivity of members of this scaffold using the KINOMEscan methodology across a near comprehensive panel of 442 kinases [[18,27]].

[2] = target: T2, panel of 442 kinases (Homo sapiens, UniProt P52333); assay type: binding; settings: Compound Concentration 10 µM
T2 construct: purchased KINOMEscan
T2 sequence (P52333 1-1124): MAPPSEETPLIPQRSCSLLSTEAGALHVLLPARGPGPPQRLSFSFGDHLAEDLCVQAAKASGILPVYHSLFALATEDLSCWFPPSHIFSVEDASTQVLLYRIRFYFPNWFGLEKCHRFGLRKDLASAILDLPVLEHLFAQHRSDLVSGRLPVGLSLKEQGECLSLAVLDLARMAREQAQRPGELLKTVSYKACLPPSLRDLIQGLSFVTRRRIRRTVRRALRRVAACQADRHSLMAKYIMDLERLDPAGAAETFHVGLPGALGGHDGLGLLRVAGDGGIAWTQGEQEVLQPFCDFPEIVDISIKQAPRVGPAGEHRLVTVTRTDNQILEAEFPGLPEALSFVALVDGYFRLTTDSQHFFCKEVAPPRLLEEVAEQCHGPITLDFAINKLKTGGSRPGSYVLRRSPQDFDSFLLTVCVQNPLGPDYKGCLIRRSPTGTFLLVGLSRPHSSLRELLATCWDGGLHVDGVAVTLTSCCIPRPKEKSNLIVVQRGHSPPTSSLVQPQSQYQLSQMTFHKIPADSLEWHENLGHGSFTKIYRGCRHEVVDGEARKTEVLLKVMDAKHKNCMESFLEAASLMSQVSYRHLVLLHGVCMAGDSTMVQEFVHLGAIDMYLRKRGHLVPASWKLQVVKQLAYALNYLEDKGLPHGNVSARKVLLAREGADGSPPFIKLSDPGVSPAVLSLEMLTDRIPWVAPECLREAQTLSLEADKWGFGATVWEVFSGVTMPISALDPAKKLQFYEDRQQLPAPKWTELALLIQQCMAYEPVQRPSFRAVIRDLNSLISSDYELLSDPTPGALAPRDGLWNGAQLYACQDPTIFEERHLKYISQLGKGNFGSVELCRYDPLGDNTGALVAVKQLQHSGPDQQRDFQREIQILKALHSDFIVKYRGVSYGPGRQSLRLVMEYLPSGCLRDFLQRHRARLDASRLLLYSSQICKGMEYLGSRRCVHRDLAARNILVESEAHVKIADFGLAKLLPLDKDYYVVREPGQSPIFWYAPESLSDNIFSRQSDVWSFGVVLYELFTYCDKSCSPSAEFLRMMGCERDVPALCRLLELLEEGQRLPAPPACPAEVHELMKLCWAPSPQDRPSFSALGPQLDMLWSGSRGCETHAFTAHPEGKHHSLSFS
Text: as §1

T1 sequence (P22607 23-806): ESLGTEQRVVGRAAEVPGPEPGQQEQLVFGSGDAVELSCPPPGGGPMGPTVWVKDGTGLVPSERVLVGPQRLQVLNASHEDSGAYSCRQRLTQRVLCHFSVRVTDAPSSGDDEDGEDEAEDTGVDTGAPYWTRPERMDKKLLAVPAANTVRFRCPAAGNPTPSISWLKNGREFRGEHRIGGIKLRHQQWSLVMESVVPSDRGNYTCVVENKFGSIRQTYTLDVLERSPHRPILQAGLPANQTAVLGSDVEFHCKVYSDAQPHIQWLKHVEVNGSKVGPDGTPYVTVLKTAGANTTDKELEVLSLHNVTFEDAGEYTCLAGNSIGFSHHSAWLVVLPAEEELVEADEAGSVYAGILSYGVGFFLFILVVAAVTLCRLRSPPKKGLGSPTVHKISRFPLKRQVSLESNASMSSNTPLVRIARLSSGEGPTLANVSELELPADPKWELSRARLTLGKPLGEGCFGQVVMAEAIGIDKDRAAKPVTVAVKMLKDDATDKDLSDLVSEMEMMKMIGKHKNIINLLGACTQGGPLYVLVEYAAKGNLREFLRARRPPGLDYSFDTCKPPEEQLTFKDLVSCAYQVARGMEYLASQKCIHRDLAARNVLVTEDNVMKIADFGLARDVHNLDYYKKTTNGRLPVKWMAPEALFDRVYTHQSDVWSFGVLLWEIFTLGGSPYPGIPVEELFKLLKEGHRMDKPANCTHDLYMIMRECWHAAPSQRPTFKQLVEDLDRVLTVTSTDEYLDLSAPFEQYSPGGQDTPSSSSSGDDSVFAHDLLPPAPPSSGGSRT

| SMILES | KINOMEscan: FGFR3 [1] | KINOMEscan: JAK3(JH1domain-catalytic) [2] |
| --- | --- | --- |
| CCOc1cc(C(=O)N2CCC(N3CCN(C)CC3)CC2)ccc1Nc1ncc2c(n1)N(C1CCCC1)c1ccccc1C(=O)N2C [Compound 26] | 100 | 100 |
| COc1cc(C(=O)N2CCC(N3CCN(C)CC3)CC2)ccc1Nc1ncc2c(n1)N(C1CCCC1)c1ccccc1C(=O)N2C [Compound 25, 11-cyclopentyl-2-((2-methoxy-4-(4-(4-methylpiperazin-1-yl)piperidine-1-carbonyl)phenyl)amino)-5-methyl-5H-benzo[e]pyrimido[5,4-b][1,4]diazepin-6(11H)-one] | 88 | 100 |
| COc1cc(C(=O)N2CCC(N3CCN(C)CC3)CC2)ccc1Nc1ncc2c(n1)N1CCc3cccc(c31)C(=O)N2C [Compound 24] | 80 |  |
| COc1cc(C(=O)N2CCC(N3CCN(C)CC3)CC2)ccc1Nc1ncc2c(n1)N(C)c1ccccc1C(=O)N2C [15 (LRRK2-IN-1)] | 80 | 100 |
